One data set relates to SH-SY5Y cells. As to the kind of experiment: Cell proliferation of SH-SY5Y cells (MTS assay). The format is cell-based, human. The note with it: 30 uM, 24 hr. How it is done:
SHSYSY cells were exposed for 24 hr to 30 uM concentration of (−)- and (+)-phenserine. After 24 hr cell proliferation was determined by MTS assay. *P,0.05, **p,0.01, and ***p,0.001 compared to control samples without drug.
For orientation: Tetrazolium dyes change colour on reduction, which living cells bring about.

A further data set concerns SH-SY5Y neuronal cells. Briefly: Phenserine plus anti-inflammatory drug, oxidative stress and trophic effects in SH-SY5Y cells (MTS assay). As for the experimental part:
Human SH-SY5Y neuronal cells were seeded in 96-well plates at a density of 1×10^5 cells per well and allowed to grow for 24 hr. […] […] At 18 hr thereafter a MTS assay was performed per the manufacturers protocol (Abcam, Cambridge, Mass.) to measure cell viability.
For example, instead of aspirin (as shown in FIG. 3A), an NSAID, naproxen, was used under the same experimental conditions at concentrations in FIGS. 3B-3D.

Data set [1] can be described thus: Plasma concentrations of phenserine and its metabolites in wistar rat plasma. To be noted: in vivo; for concentration at 1 h: Hour 1; for concentration at 2 h: Hour 2.
Data set [2] in a line: Plasma concentrations of phenserine and its metabolites in beagle dog plasma. Type of data set: in vivo. To be noted: beagle, in vivo; for concentration at 1 h: Hour 1; for concentration at 2 h: Hour 2; for concentration at 3 h: Hour 3; for concentration at 4 h: Hour 4.
Data set [3] can be described thus: Estimated EC50/IC50 of phenserine and metabolites for pharmacological activity in brain.
Data set [4] in a line: Plasma concentrations of phenserine and its metabolites in human plasma. To be noted: both sexes, in vivo; for concentration at 1 h: Hour 1; for concentration at 2 h: Hour 2; for concentration at 3 h: Hour 3; for concentration at 4 h: Hour 4. The format is in vivo. How it is done:
The relationship between pharmacokinetic and pharmacodynamics evaluated in FIG. 15 was evaluated in aged volunteers. A total of 32 subjects (60-80 years of age, 11 males/21 females) were screened and enrolled. All participants provided informed consent, the conduct of the study were approved and overseen by the local Review IRB.
For pharmacokinetic (blood concentrations of primary drug and select metabolites) a dose […] additionally was evaluated.
These were centrifuged within 15 min of collection, and stored in a freezer at −70° C. freezer in marked polypropylene tubes until analysis. Phenserine levels were quantified by liquid chromatography/mass spectrometry (LC/MS/MS). In brief, analyses were undertaken on Perkin-Elmer (PE, Norwalk, USA) high performance liquid chromatographic (HPLC) instrumentation. Compound separation was performed on a Phenomenex LUNA C18 column (5 μM, 2.0 mm×150 mm; Torrance, USA), with a Phenomenex guard column (2 mm×30 mm). The mobile phase was 60% acetonitrile (HPLC grade) plus 40% ammonium acetate (v/v) with a flow rate of 0.4 mL/min. […] Thereafter, 2 mL of tert-butyl methyl ether was added and the sample was mixed and flash frozen. The organic layer was decanted, dried under a stream of nitrogen and reconstituted into 250 μL of mobile phase. Of this, a 60 μL sample was then injected into the HPLC.

For data set [5] the following is noted: in vivo.
Another data set can be described thus: clinical. The note with it: for t1/2 /Elim / Estimated Brain CMax: 15 mg immediate release dose; for Estimated Brain CMax: from plasma CMax and brain:plasma partitioning; for Cmax: human, in vivo, 15 mg. An excerpt: FIGS. 33-34 depict two graphs from an Excel spreadsheet. FIG. 33 is a linear plot of plasma level vs time and FIG. 34 is a semi-log plot of plasma conc. vs time.

Values joined by “and” are separate entries in the source; they are usually repeats but may differ in a detail not shown here. Identical values can stand only once. Like-named read-outs stand apart in the source and are kept apart here. Some results are limits rather than exact numbers.

By IC50 is commonly meant the concentration that gives 50% inhibition. What is called Cmax is the peak of the concentration-time curve.

Consider `CN1CC[C@]2(C)c3cc(OC(=O)Nc4ccccc4)ccc3N(C)[C@H]12` [(+)-phenserine, reference compound], for which, in the data set with SH-SY5Y cells, the “cell proliferation (neurotrophic actions)” value is reported as “increasing cellular proliferation”.
In the case of `CC(=O)Oc1ccccc1C(=O)O` [ASA, acetylsalicylic acid, reference compound], the “oxidative stress-induced cellular death (cell viability)” value in the data set on SH-SY5Y neuronal cells (ASA 10^−5 M, (−)-Phen 10^−7 M, 10^−6 M, H2O2 50 μM, 18 hr) is recorded as “no activity”.
Take `C[C@@]12CCN[C@@H]1Nc1ccc(OC(=O)Nc3ccccc3)cc12` [N1,N8-bisnor-phenserine, (−)-N1, N8-bisnorphenylcarbamoyleseroline]: in data set [1], the concentration at 1 h came to 536 ng/mL and the concentration at 2 h amounted to 539 ng/mL. In data set [2], the concentration at 1 h was 235 ng/mL, the concentration at 2 h was 220 ng/mL, the concentration at 3 h is 428 ng/mL and the concentration at 4 h is 351 ng/mL. Moreover, in data set [3], the “Estimated EC50” value is given as 100 NanoMolar. In data set [3] (BNPCE IC50+/−25, read-out: IC50 (estimated)), the 50% inhibitory concentration (IC50) was 22 nM. Further, the IC50 in data set [3] (pharmacological activity in brain, read-out: estimated IC50) was 100 nM. Further, in data set [4], the concentration at 1 h amounted to 22.5 ng/mL, the concentration at 2 h stood at 14.5 ng/mL, the concentration at 3 h is 7.62 ng/mL and the concentration at 4 h was 6.55 ng/mL. In addition, the “brain:blood partition” value in data set [5] is on record as “approx. 1.3:1”. Besides, in “clinical”, the “t1/2 /Elim” value was 0.53 to 1.29 h; the Cmax was 22.5 ng/mL and 73.3 nM. Moreover, the “Estimated Brain CMax” value in “clinical” (listed as N-1, N-8 BisNor P) was 28.8 ng/ml and 95.0 nM.
For `CN1c2ccc(OC(=O)Nc3ccccc3)cc2[C@]2(C)CCN[C@H]12` [N1-nor-phenserine, (−)-N1-norphenylcarbamoyleseroline], in data set [1], the concentration at 1 h came out at 37.6 ng/mL and the concentration at 2 h came out at 26.2 ng/mL. Further, in data set [2], the concentration at 1 h was 86.1 ng/mL, the concentration at 2 h was 50.3 ng/mL, the concentration at 3 h is 86.7 ng/mL and the concentration at 4 h worked out at 41.9 ng/mL. The “Estimated EC50” value in data set [3] is 24-100 NanoMolar. In addition, in data set [4], the concentration at 1 h was 1.56 ng/mL, the concentration at 2 h was 1.19 ng/mL, the concentration at 3 h turned out to be 0.8 ng/mL and the concentration at 4 h turned out to be 0.53 ng/mL. Further, the “brain:blood partition” value in data set [5] was “approx. 4:1”. In the data set “clinical”, the “t1/2 /Elim” value lay within 1.90 to 1.96 h; the “Estimated Brain CMax” value was 2.15 ng/ml and 6.6 nM; the Cmax is 1.56 ng/mL and 4.8 nM. In the data set “clinical” (targeted 30 mg/d or 60 mg/d in sustained release formulation), the expected plasma levels is greater than 1.0 ng/mL.
As for `CN1CC[C@@]2(C)c3cc(OC(=O)Nc4ccccc4)ccc3N[C@@H]12` [N8-nor-phensereine, (−)-N8-norphenylcarbamoyleseroline], in data set [1], the concentration at 1 h is 96.4 ng/mL and the concentration at 2 h stood at 69.2 ng/mL. For the same compound, in data set [2], the concentration at 1 h stood at 33.4 ng/mL, the concentration at 2 h was found to be 28.2 ng/mL, the concentration at 3 h came to 9.06 ng/mL and the concentration at 4 h was found to be 7.88 ng/mL. In addition, the “Estimated EC50” value in data set [3] is 24-100 NanoMolar. For the same compound, in data set [4], the concentration at 1 h came to 11.2 ng/mL, the concentration at 2 h was 7.38 ng/mL, the concentration at 3 h is 4.28 ng/mL and the concentration at 4 h was 3.61 ng/mL. The “brain:blood partition” value in data set [5] is on record as “approx. 6:1”. Further, in the data set “clinical”, the “t1/2 /Elim” value is 1.51 to 1.76 h; the “Estimated Brain CMax” value was 17.7 ng/ml and 52.9 nM; the Cmax is 11.2 ng/mL and 34.8 nM.
On to `COc1ccc2cc([C@H](C)C(=O)O)ccc2c1` [naproxen, reference compound], for which, in the data set with SH-SY5Y neuronal cells (10 nM to 100,000 nM), the “tolerability by SH-SY5Y neuronal cells” value is on record as “well tolerated” and the trophic actions entry is given as “does not show activity”.
